Results published in paper PMC12888861, “Antibacterial activity of enmetazobactam against Acinetobacter spp.: a molecular dissection of mechanism of action and resistance determinants” (Antimicrobial Agents and Chemotherapy, 2025).

What was measured:
OXA-23 [1] = biological target: T1, OXA-23 (Acinetobacter baumannii, UniProt Q9L4P2); test: Jump-dilution dissociation assay (koff, t1/2) with OXA-23; assay type: biochemical
T1 construct: GST (N); made in house; host or cells: Escherichia coli BL21
T1 sequence (Q9L4P2 18-273): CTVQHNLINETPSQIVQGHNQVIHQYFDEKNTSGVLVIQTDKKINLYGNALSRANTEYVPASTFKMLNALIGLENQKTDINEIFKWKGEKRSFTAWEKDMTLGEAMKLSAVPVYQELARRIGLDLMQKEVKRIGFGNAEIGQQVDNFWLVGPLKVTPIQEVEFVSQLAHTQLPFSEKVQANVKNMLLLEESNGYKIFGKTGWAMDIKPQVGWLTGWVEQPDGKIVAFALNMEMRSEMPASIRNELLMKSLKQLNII
Method: (§1) The Michaelis-Menten constant (Km) was determined by fitting the data to the Michaelis-Menten equation, following established protocols ([38]). The kcat (hydrolysis rate constant of the β-lactamase) was obtained by linearization of the kinetic data ([39]). To assess the possible inhibitory capacity of enmetazobactam against the CHDLs of A. baumannii, specific OXA-23 inhibition kinetics assays were performed in a Nanoquant Infinite spectrophotometer (Tecan). […] Also, the dissociation constant (koff), which represents the rate at which the enzyme-inhibitor complex dissociates (i.e., the proportion of the enzyme-inhibitor complex that dissociates per unit of time), was determined through a jump-dilution assay that monitored OXA-23 activity recovery as the enzyme-inhibitor complex dissociated. OXA-23 (1 µM) was preincubated for 30 min at 37°C with excess of inhibitors (50× IC₅₀) to ensure full acyl-enzyme complex formation. Subsequently, the mixture was diluted 1:5,000 to allow gradual complex dissociation. […] Enzymatic activity, reflecting the progressive dissociation of the acyl-enzyme complex, was monitored spectrophotometrically at 490 nm for 8 h. The resulting progress curves were fitted using GraphPad Prism (GraphPad Software, MA, USA) to equation 1 to estimate koff, where V0 is the initial, inhibited enzyme velocity; Vs is the steady-state uninhibited enzyme velocity, and t is time.
(1) P=Vs×t+(V0−Vs)×[1−exp^(−koff × t)]/koff

OXA-24/40 = conditions: cited from earlier work
OXA-23 [2] = biological target: T1, OXA-23; test: OXA-23 inhibition assay (nitrocefin hydrolysis IC50); assay type: biochemical; conditions: OXA-23; nitrocefin hydrolysis; 10 min preincubation at room temperature; read-out: IC50
Method: as §1

[3] = test system: [H][C@@]12CC(=O)N1[C@@H](C(=O)[O-])[C@](C)(Cn1cc[n+](C)n1)S2(=O)=O; test: purified protein, by the assay type; conditions: other: hydrolysis by OXA-23, 25°C, pH 7.4
Method: All kinetics measurements were performed in triplicate, at 25°C, in 20 mM NaHCO3 and 50 mM Na2HPO4 at pH 7.4.

[4] = test system: carbapenem-resistant CHDL-producing A. baumannii isolates (OXA-23, OXA-24/40, OXA-58); test: Checkerboard synergy assay (FIC index); assay type: cell-based, Acinetobacter baumannii; conditions: checkerboard colistin x enmetazobactam, alone or in presence of the partner
Method: Checkerboard assays were performed to assess synergistic interactions between the cefepime/enmetazobactam combination and sulbactam, as well as between enmetazobactam alone and either sulbactam or colistin. […] The assays were conducted with three multidrug-resistant A. baumannii isolates from the Spanish Multicenter Collection, each producing a different OXA-type carbapenemase: OXA-23, OXA-24/40, or OXA-58. The FIC index was calculated and interpreted as follows: FICindex ≤ 0.5, synergy; FICindex > 0.5–4, no synergy; and FICindex > 4, antagonism ([33], [34]).

Compound: CC1=C[C@@H]2CN(C(=O)N2OS(=O)(=O)O)[C@@H]1C(N)=O [durlobactam]
- residence time (OXA-23 [1]; jump dilution): 412 ± 4 min
- koff (OXA-23 [1]; jump dilution 1:5,000): 2.8e-05 s⁻¹
- IC50 (OXA-24/40): 190 nM
- IC50 (OXA-23 [2]): 170 nM

Compound: OXA-23 (Acinetobacter baumannii)
- Km [3]: 171.85 ± 55.78 µM
- kcat [3]: 0.177 ± 0.056 s⁻¹
- kcat/Km [3]: 1030 M⁻¹ s⁻¹

Compound: colistin
- MIC ([4]; isolate Ab4 (OXA-23)): 1 µg/mL
- MIC ([4]; isolate Ab138 (OXA-58)): 1 µg/mL
- MIC ([4]; isolate Ab180 (OXA-24/40)): 0.25 µg/mL
